pIC50: −log10 of the molar value. Read-outs that look alike come from different tables or passages of the source.

Series [1] deals with T1, PRMT5/MEP50-MTA protein complex (Homo sapiens, UniProt O14744).
T1 construct: purchased Viva Biotech
Nature of the series: Thermal shift assay: thermal stability (melting temperature) of PRMT5/MEP50-MTA protein complex. It counts as binding. The conditions noted are these: final compound concentration 8 µM; 2 µM PRMT5/MEP50, 2 µM MTA; Tm minus Tm of DMSO vehicle control. A digest of the protocol:
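Human PRMT5/MEP50 (2 µM) was preincubated 30 min with 2 µM MTA in 50 mM HEPES, 10 mM DTT, 250 mM NaCl with SYPRO Orange. Compound at 8 µM final (2.5% DMSO vehicle) was added for 10 minutes, then samples were heated 25°C to 95°C at 0.03°C/s. Tm was derived from the melt curve.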

The subject of the next series is HCT116 wild-type cells. Nature of the series: Cell proliferation inhibition (CellTiter-Glo), HCT116 wild-type cells. It is filed as cell-based. A digest of the protocol: (§1)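 Cells were grown in McCoy's 5A with 10% FBS, adhered overnight, then exposed to serial compound dilutions for 72-240 h at 37°C, 5% CO2, with a vehicle control. Viability was read as CellTiter-Glo luminescence, and IC50 came from nonlinear regression of inhibition rate against concentration.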
For orientation: In ATP-based viability assays light output follows the ATP content of the culture.

Series [2] deals with MTAP Knockout HCT116 cells. Kind of series: Cell proliferation inhibition (CellTiter-Glo), HCT116 MTAP knockout cells. The conditions noted are these: for Selectivity: HCT116 IC50 versus MTAP Knockout HCT116 IC50. It counts as cell-based. An outline of the steps:
as §1

A short description of series [3]: Pharmacokinetics in rats (plasma) after oral administration. It counts as in vivo. The note with it: SD rats, p.o. 5 mg/kg; for MRT inf: read-out: MRT0-∞.
Method: Test Example 4: Determination of the pharmacokinetics of the compounds of the present invention in rats (plasma) after oral administration.
1 Study objective: SD rats were used as test animals to study the pharmacokinetic behaviour of the following example compounds in rats (plasma) after oral administration at a dose of 5 mg/kg. 2 Test scheme • 2.1 Test drugs: Vehicle formula: 0.5% CMC-Na (1% Tween 80); the examples of the present invention, made in house. • 2.2 Test animals: 3 SD rats per group, male, purchased from Shanghai Bikai Keyi Biotechnology Co., Ltd., with animal license number (SCXK (Shanghai) 2018-0006, No.20180006037467). • 2.3 Administration: 3 SD rats per group, male, were fasted overnight and then respectively administered PO at a dose of 5 mg/kg and a volume of 10 mL/kg. • 2.4 Sample collection: 0.2 mL of blood was collected from the jugular vein of rats before administration and at 0, 0.25, 0.5, 1, 2, 4, 6, 8 and 24 h after administration, and placed in EDTA-K2test tubes, and the test tubes were centrifuged at 6,000 rpm at 4°C for 6 min to separate the plasma, which was stored at -80°C. The animals were fed 4 h after administration. • 2.5 Sample treatment • 1) 160 uL of acetonitrile was added to 40 uL of plasma sample for precipitation, and after mixing, the mixture was centrifuged at 3,500 × g for 5-20 minutes. • 2) 100 uL of the treated supernatant solution was taken for LC/MS/MS analysis to determine the concentration of the test compounds. • 2.6 Liquid phase analysis • Liquid phase conditions: Shimadzu LC-20AD pump;mass spectrometry conditions: AB Sciex API 4000 mass spectrometer • Chromatographic column: Phenomenex Gemiu 5 um C18 50 × 4.6 mm • Mobile phase: solution A: 0.1% formic acid in water, solution B: methanol • Flow rate: 1.0 mL/min, elution time: 0-4.0 min, with eluents as follows:
Experimental results and analysis: The main pharmacokinetic parameters were calculated using WinNonlin 8.2.
The target in another series is hERG potassium channel (Homo sapiens, UniProt Q12809). Nature of the series: hERG potassium channel inhibitory activity assay (CHO-hERG cells, tail current). It is filed as cell-based. The note with it: inhibition of tail current, read-out: inhibitory activity (IC50) against the cardiac hERG potassium channel. The source says: Test Example 5: hERG potassium channel inhibitory activity assay
Sequence of hERG potassium channel (Q12809 whole entry): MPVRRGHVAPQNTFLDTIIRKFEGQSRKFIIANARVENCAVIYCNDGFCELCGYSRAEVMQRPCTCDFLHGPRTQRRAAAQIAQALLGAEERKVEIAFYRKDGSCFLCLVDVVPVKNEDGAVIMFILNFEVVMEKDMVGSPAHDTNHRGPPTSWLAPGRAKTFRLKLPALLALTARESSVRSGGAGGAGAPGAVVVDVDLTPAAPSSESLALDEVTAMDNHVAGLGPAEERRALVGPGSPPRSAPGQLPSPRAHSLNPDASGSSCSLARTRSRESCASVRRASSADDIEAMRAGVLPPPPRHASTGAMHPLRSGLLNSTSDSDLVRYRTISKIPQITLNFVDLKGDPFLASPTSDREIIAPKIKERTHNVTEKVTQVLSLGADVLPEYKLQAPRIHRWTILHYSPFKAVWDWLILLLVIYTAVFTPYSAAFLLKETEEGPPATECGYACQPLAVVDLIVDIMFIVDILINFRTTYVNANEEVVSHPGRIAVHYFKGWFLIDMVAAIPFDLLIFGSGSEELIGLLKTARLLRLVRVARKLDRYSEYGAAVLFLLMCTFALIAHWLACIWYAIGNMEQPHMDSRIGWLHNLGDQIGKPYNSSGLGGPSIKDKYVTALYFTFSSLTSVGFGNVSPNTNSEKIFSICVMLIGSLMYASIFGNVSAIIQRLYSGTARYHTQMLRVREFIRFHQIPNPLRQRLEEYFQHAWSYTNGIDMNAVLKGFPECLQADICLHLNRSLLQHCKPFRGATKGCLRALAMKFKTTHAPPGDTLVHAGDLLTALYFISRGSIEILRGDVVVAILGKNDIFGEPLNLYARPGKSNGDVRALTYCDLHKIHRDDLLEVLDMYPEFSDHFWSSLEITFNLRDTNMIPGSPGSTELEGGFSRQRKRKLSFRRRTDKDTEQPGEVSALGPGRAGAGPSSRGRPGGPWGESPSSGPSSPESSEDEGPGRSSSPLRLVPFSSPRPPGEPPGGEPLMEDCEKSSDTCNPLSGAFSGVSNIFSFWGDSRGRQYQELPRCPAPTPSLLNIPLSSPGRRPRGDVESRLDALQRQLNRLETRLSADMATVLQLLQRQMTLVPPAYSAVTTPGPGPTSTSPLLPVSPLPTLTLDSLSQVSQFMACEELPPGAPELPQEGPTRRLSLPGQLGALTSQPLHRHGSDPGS
1 Study objective: The objective of this test example is to determine the inhibitory effect of the compound on the hERG potassium channel activity. 2 Experimental instruments and reagents: 2.1 Reagents
3. Experimental method • 3.1 Cell culture: The CHO cells stably expressing the hERG potassium channel (CHO-hERG) used in the experiment were obtained from Sophion Bioscience (Ballerup, Denmark), and passaged and cryopreserved at WuXi AppTec Co., Ltd. in Shanghai. The CHO-hERG cells were cultured and passaged in Ham's F-12 medium containing 1 × GlutaMAX, 10% foetal bovine serum, 100 µg/mL G418 and 100 µg/mL hygromycin B at 37°C with 5% CO2. • 3.2 Preparation of intracellular and extracellular solutions: The extracellular solution was prepared once a month, and aliquoted and stored in 1 L storage bottles. The intracellular solution was prepared once every three months, and aliquoted and cryopreserved at -20°C. The intracellular solution was thawed in a 37°C water bath before the experiment and then placed in an ice bath for later use. • 3.3 Preparation of compounds: The positive control drug amitriptyline hydrochloride and the compounds were dissolved in 100% DMSO (Sigma-Aldrich, D2650) to prepare 10 mM or 30 mM stock solutions. Before the experiment, the stock solutions of the test compounds were diluted with DMSO to prepare solutions 1000-fold or 333-fold higher than the desired test concentrations, and then further diluted 1000-fold or 333-fold with the extracellular solution to achieve the desired concentrations. • 3.4 Cell preparation: The CHO-hERG cells used in the experiment were cultured for at least two days. When the cell density reached more than 75%, the cells were digested with TrypLE, then resuspended in the extracellular solution, and centrifuged. The supernatant was discarded, and then the cells were further resuspended in 2 mL of extracellular solution for later use. • 3.4 Experimental data processing: In data processing, the peak tail current was baseline-corrected when evaluating the hERG blocking effect. The effect of each compound at various concentrations was expressed as the inhibition rate of the tail current. IC50 values were obtained by fitting the data to the Hill equation: I/Icontrol =Bottom + (Top-Bottom)/(1+10^((LogIC50-X) * HillSlope)) • Top: maximum effect; Bottom: minimum effect; Hillslope: slope; X: concentration of the test compound. • IC50: half-maximal inhibitory concentration of the test compound on hERG.
Background: hERG is a cardiac potassium channel; its block is linked to QT prolongation.

Where [4] appears, read: Homo sapiens, HCT-116, HCT116 wild-type cells, proliferation inhibition, Cell Titer-Glo, read-out: HCT116 IC50.
Where [5] appears, read: Homo sapiens, HCT-116, MTAP Knockout HCT116 cells, proliferation inhibition, Cell Titer-Glo, read-out: MTAP Knockout HCT116 IC50.
The mark [6] stands for this setting: Homo sapiens, HCT-116, read-out: HCT116 IC50.
[7] abbreviates: Homo sapiens, HCT-116, read-out: MTAP Knockout HCT116 IC50.

T1 sequence (O14744 whole entry): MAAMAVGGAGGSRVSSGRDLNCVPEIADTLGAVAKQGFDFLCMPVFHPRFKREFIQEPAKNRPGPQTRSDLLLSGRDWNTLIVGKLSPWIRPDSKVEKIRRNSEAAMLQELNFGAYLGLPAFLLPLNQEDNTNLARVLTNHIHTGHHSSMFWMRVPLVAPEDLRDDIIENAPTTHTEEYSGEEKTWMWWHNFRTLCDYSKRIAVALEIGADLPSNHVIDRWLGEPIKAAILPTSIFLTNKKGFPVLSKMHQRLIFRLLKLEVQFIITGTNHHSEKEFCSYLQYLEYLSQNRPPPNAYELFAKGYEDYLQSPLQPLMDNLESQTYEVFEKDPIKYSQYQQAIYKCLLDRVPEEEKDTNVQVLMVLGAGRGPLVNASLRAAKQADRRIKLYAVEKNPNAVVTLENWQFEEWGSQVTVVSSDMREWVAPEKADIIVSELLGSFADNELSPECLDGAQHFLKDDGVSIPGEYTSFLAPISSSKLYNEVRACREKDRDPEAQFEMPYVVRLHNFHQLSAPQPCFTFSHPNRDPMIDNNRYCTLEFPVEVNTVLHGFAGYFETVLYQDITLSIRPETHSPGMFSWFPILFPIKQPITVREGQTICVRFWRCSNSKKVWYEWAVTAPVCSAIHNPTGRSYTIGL
T1 sequence (Q9BQA1 whole entry partner): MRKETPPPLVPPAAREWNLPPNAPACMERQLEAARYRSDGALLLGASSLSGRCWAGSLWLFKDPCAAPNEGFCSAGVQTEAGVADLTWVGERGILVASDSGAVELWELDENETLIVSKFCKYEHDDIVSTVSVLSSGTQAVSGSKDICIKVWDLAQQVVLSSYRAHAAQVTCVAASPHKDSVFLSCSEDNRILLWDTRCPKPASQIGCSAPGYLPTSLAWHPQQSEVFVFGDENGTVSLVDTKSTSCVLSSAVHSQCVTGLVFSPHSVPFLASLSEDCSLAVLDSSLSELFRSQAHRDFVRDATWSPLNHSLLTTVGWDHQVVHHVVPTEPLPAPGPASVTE

Usually ΔTm stands for the shift of the melting midpoint relative to a reference. A word on the pIC50: it is the negative decadic logarithm of the IC50, by convention in mol/L. The term AUC(0-inf) denotes total exposure, with the tail of the curve extrapolated. A low value points to less exposure. One may read the half-life as the time in which the quantity being followed falls by half. Read a low half-life as fast loss. In general, Cmax refers to the highest concentration seen after dosing. Broadly, the Tmax is the time from dosing to the highest level. As for `Nc1nc2cc3c(cc2c2c1COC2)C(=O)N(C1COCc2nc(C(F)(F)F)ccc21)CCC/C=C\3` (single isomer, unassigned) [Example 165-P1], in series [1], the ΔTm at 8 µM is 11.9 °C. Further, the pIC50 in the series on HCT116 wild-type cells (setting [4]) was 6.17. Moreover, in series [2], the Selectivity is 132. Besides, the pIC50 in series [2] (setting [5]) is 8.28. Besides, in series [3] (male, rat, po), the AUC(0-inf) amounted to 999 ng·h/mL, the half-life was 1.5 h and the MRT inf is 2.5 h. For the same compound, in series [3] (male, rat, po, read-out: Cmax), the Cmax came out at 321 ng/mL. Besides, the Tmax in series [3] (male, rat, po, read-out: tmax) came out at 1 h.
On to `Nc1nc2cc3c(cc2n2cncc12)C(=O)N(Cc1ccc(C(F)(F)F)cn1)CCCOC3` [Example 176, 4-Amino-12-((5-(trifluoromethyl)pyridin-2-yl)methyl)-9,10,11,12-tetrahydroimidazo[1,5-a][1,5]oxazonino[8,7-g]quinoxalin-13(7H)-one], for which the ΔTm at 8 µM in series [1] was 11.5 °C. For the same compound, the pIC50 is 6.02 in the series on HCT116 wild-type cells (setting [4]), 7.82 in series [2] (setting [5]) and less than 4.52 on hERG potassium channel. The Selectivity in series [2] came out at 62.
With `Nc1nc2cc3c(cc2n2cncc12)C(=O)N(Cc1ccc(-c2c(F)cccc2F)cn1)CCCOC3` [Example 298, 4-Amino-12-((5-(2,6-difluorophenyl)pyridin-2-yl)methyl)-9,10,11,12-tetrahydroimidazo[1,5-a][1,5]oxazolo[8,7-g]quinoxalin-13(7H)-one], in series [1], the thermal shift (ΔTm) at 8 µM was determined as 12.5 °C. Besides, the negative-log IC50 (pIC50) in the series on HCT116 wild-type cells (setting [6]) was 6.66; in series [2] (setting [7]), 8.57; at hERG potassium channel, less than 4.52. Further, in series [2], the Selectivity worked out at 81.
Consider `Nc1nc2cc3c(cc2n2cncc12)C(=O)N(Cc1ccc(S(F)(F)(F)(F)F)cn1)CCCOC3` [Example 414, 4-Amino-12-((5-(pentafluoro-λ^6-sulphanyl)pyridin-2-yl)methyl)-9,10,11,12-tetrahydroimidazo[1,5-a][1,5]oxazonino[8,7-g]quinoxalin-13(7H)-one], for which the ΔTm at 8 µM in series [1] turned out to be 12.3 °C. For the same compound, the pIC50 in the series on HCT116 wild-type cells (setting [4]) was 6.64. Besides, the Selectivity in series [2] is on record as 47. In addition, the pIC50 in series [2] (setting [5]) is 8.31. Further, in series [3] (male, rat, po), the AUC(0-inf) came to 949 ng·h/mL, the half-life is 1.3 h and the MRT inf was determined as 3.3 h. The Cmax in series [3] (male, rat, po, read-out: Cmax) was 208 ng/mL. Further, the Tmax in series [3] (male, rat, po, read-out: tmax) was 2 h.
With `Nc1nc2cc3c(cc2n2cncc12)C(=O)N(Cc1ccc(C(F)(F)F)cn1)CC/C=C\3` [Example 416, (Z)-4-Amino-11-(5-(trifluoromethyl)pyridin-2-yl)methyl-10,11-dihydroazocino[4,3-g]imidazo[1,5-a]quinoxalin-12(9H)-one], in series [1], the ΔTm at 8 µM was determined as 12.4 °C. Further, the pIC50 in the series on HCT116 wild-type cells (setting [4]) is 6.65. In series [2], the Selectivity is 93. For the same compound, in series [2] (setting [5]), the pIC50 was 8.62. Further, in series [3] (male, rat, po), the total exposure AUC(0-inf) was found to be 1520 ng·h/mL, the half-life was 1.3 h and the MRT inf is 2.9 h. Besides, in series [3] (male, rat, po, read-out: Cmax), the Cmax was 395 ng/mL. Further, the time of peak concentration (Tmax) in series [3] (male, rat, po, read-out: tmax) is 2 h.
For `Nc1nc2cc3c(cc2n2cncc12)C(=O)N(Cc1ccc(C(F)(F)F)cn1)CCCCOC3` [Example 417, 4-Amino-13-((5-(trifluoromethyl)pyridin-2-yl)methyl)-10,11,12,13-tetrahydro-7H-imidazo [1,5-a][1,6] oxazino [3,4-g] quinoxalin-14(9H)-one], the thermal shift (ΔTm) at 8 µM in series [1] worked out at 11.1 °C. Further, the pIC50 in the series on HCT116 wild-type cells (setting [6]) was 5.42; in series [2] (setting [7]), 7.96; at hERG potassium channel, less than 4.52. Moreover, in series [2], the Selectivity is on record as 346.
Regarding `Nc1nc2cc3c(cc2c2c1COC2)C(=O)N(Cc1ccc(S(F)(F)(F)(F)F)cn1)CCCOC3` [Example 434, 4-Amino-3-methyl-12-((5-(pentafluorosulphanyl)pyridin-2-yl)methyl)-3,7,9,10,11,12-hexahydrofuro[3,4-c][1,5]oxazolo[7,8-g]quinolin-13(1H)-one], the ΔTm at 8 µM in series [1] was determined as 12.2 °C. The pIC50 in the series with HCT116 wild-type cells (setting [6]) is 6.24. Besides, the Selectivity in series [2] was determined as 87. Also, the pIC50 in series [2] (setting [7]) was 8.17. In series [3] (rat, po), the AUC(0-inf) was determined as 2330 ng·h/mL, the half-life is 3.1 h and the MRT inf was found to be 5.3 h. The Cmax in series [3] (rat, po, read-out: Cmax) was determined as 273 ng/mL. Besides, the Tmax in series [3] (rat, po, read-out: tmax) turned out to be 2 h.
On to `C[C@H]1OCc2c1c(N)nc1cc3c(cc21)C(=O)N(Cc1ccc(S(F)(F)(F)(F)F)cn1)CCCOC3` [Example 437-P1, (R)-4-Amino-3-methyl-12-((5-(pentafluorosulphanyl)pyridin-2-yl)methyl)-3,7,9,10,11,12-hexahydrofuro[3,4-c][1,5]oxazolo[7,8-g]quinolin-13(1H)-one], for which the ΔTm at 8 µM in series [1] was found to be 12.6 °C. For the same compound, in the series on HCT116 wild-type cells (setting [6]), the pIC50 was 6.73. The Selectivity in series [2] was found to be 85. The pIC50 in series [2] (setting [7]) is 8.66. Further, in series [3] (rat, in vivo, po), the AUC(0-inf) came to 2050 ng·h/mL, the half-life was 2.4 h and the MRT inf was 3.7 h. Further, the Cmax in series [3] (rat, in vivo, po, read-out: Cmax) was 318 ng/mL. Also, in series [3] (rat, in vivo, po, read-out: tmax), the Tmax is 2 h.
Consider `Nc1nc2cc3c(cc2c2c1COC2)C(=O)N(Cc1ccc(C(F)(F)F)cn1)CC/C=C\3` [Example 638, (Z)-4-Amino-11-((5-(trifluoromethyl)pyridin-2-yl)methyl)-3,9,10,11-tetrahydronaphthyrido[3,4-g]furo[3,4-e]quinoxalin-12(1H)-one], for which the thermal shift (ΔTm) at 8 µM in series [1] was determined as 12.3 °C. For the same compound, the negative-log IC50 (pIC50) in the series on HCT116 wild-type cells (setting [6]) was 6.50. Further, the Selectivity in series [2] turned out to be 71. Moreover, the pIC50 in series [2] (setting [7]) was 8.35. Also, in series [3] (rat, po), the AUC(0-inf) was found to be 929 ng·h/mL, the half-life was 1.8 h and the MRT inf came to 3.5 h. Further, the Cmax in series [3] (rat, po, read-out: Cmax) turned out to be 241 ng/mL. In addition, the Tmax in series [3] (rat, po, read-out: tmax) was determined as 1.7 h.
In the case of “(Z)-4-Amino-12-((5-(trifluoromethyl)pyridin-2-yl)methyl)-9,10,11,12-tetrahydro-13H-azonino[4,3-g]imidazo[1,5-a]quinoxalin-13-one [Example 171]”, the “ΔTm (°C)” value in series [1] is 12.03 °C. For the same compound, in the series on HCT116 wild-type cells (HCT116 wild-type cells, proliferation inhibition, Cell Titer-Glo, read-out: HCT116 IC50), the pIC50 was 6.63. For the same compound, in series [2], the Selectivity was determined as 90. For the same compound, the pIC50 in series [2] (MTAP Knockout HCT116 cells, proliferation inhibition, Cell Titer-Glo, read-out: MTAP Knockout HCT116 IC50) is 8.59. Moreover, in series [3], the “AUC 0-∞” value was determined as 1058 ng·h/mL, the Cmax came to 283 ng/mL, the “MRT0-∞” value is reported as 2.9 h and the Tmax is reported as 1.0 h. In addition, the t1/2 in series [3] was found to be 1.6 h.
